Source: patent publication US20040137022A1, “Manganese compositions for treating skin vascular tissue and combating skin pallor” (SOCIETE L'OREAL S.A., priority 2000, published 2004)

Tested on: endothelium-free isolated blood vessels
Settings: concentration 10^−6 M; blood vessel rings contracted with noradrenalin 3×10^−7 M; 37° C.
Description: Activity of manganese (manganese gluconate, manganese chloride and manganese carbonate) in an ex vivo model of endothelium-free isolated blood vessels:
Blood vessel rings (or sections) were maintained in a 20 ml tank filled with survival fluid (Krebs Henseleit liquid) maintained at a temperature of 37° C. and oxygenated with a mixture of 95% oxygen and 5% CO2.
The variations in the tension of the blood vessel were then recorded with an initial preloading of several […].
The rings were contracted with noradrenalin at a concentration of 3×10^−7 M. On each preparation, the effect of the test products was evaluated at increasing and cumulative concentrations of from 3×10^−8 M to 10^−5 M.

Substance	% of relaxation [%]
manganese carbonate [MnCO3]	100
manganese chloride [MnCl2]	100
manganese gluconate	100
